Test results: patent US9695155B2, “Herbicidal substituted pyrimidinyloxy benzene compounds” (E. I. DU PONT DE NEMOURS AND COMPANY, priority 2013, dated 2017)

How the values were obtained:
Heteranthera limosa = assay: Test B flooded paddy test; assay type: in vivo; conditions: Heteranthera limosa, Flood, 250 g ai/ha; 0 to 100 scale where 0 is no effect and 100 is complete control; read-out: Plant response rating, Ducksalad
In short: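 Plants at 2-leaf stage; pots flooded to 3 cm above soil and compound applied directly into paddy water, depth held throughout. After 13 to 15 days in greenhouse, visual rating versus controls on 0 (no effect) to 100 (complete control) scale.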

ragweed = assay: Test C postemergence; assay type: in vivo, Ambrosia elatior
In short: (§1)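 Seeds were sown in loam–sand blend and sprayed preemergence, while plants at 1- to 4-leaf stage (2–18 cm) in peat-based medium received postemergence sprays; test chemicals were formulated in a non-phytotoxic solvent with surfactant. After 13–15 days in a greenhouse, injury was rated visually against controls, 0 (no effect) to 100 (complete control).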

morningglory = assay: Test A postemergence; assay type: in vivo, Ipomoea spp.; conditions: 0 to 100 scale where 0 is no effect and 100 is complete control
In short: (§2)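 Injury scores run from 0, no effect, to 100, complete control, judged by eye against untreated plants roughly 10 days after treatment. Chemicals carried a surfactant in a non-phytotoxic solvent and went onto loam–sand soil preemergence or onto one- to two-leaf seedlings postemergence.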

galium = assay: Test C postemergence; assay type: in vivo, Galium aparine; conditions: Galium, post-emergence
In short: as §1

wheat = assay: Test A preemergence; assay type: in vivo, Triticum aestivum
In short: as §2

waterhemp = assay: Test C preemergence; assay type: in vivo, Amaranthus rudis; conditions: Amaranthus tuberculatus, pre-emergence
In short: as §1

oilseed rape = assay: Test C preemergence; assay type: in vivo, Brassica napus; conditions: Brassica napus, pre-emergence
Excerpt: Seeds of plant species selected from blackgrass (Alopecurus myosuroides), Italian ryegrass (Lolium multiflorum), wheat, winter (winter wheat, Triticum aestivum), galium (catchweed bedstraw, Galium aparine), corn (Zea mays), large (Lg) crabgrass (Digitaria sanguinalis), giant foxtail (Setaria faberii), johnsongrass (Sorghum halepense), lambsquarters (Chenopodium album), morningglory (Ipomoea coccinea), yellow nutsedge (Cyperus esculentus), pigweed (Amaranthus retroflexus), ragweed (common ragweed, Ambrosia elatior), soybean (Glycine max), barnyardgrass (Echinochloa crus-galli), oilseed rape (Brassica napus), waterhemp (common waterhemp, Amaranthus rudis), kochia (Kochia scoparia), wild oat (Avena fatua), surinam grass (Brachiaria decumbens), foxtail, green (green foxtail, Setaria viridis), goosegrass (Eleusine indica), bromegrass, downy (downy bromegrass, Bromus tectorum), nightshade (eastern black nightshade, Solanum ptycanthum), cocklebur (common cocklebur, Xanthium strumarium), cupgrass, woolly (woolly cupgrass, Eriochloa villosa), bermudagrass (Cynodon dactylon), sunflower, (common oilseed sunflower, Helianthus annuus), Russian thistle (Salsola kali), and velvetleaf (Abutilon theophrasti) were planted into a blend of loam soil and sand and treated preemergence with test chemicals formulated in a non-phytotoxic solvent mixture which included a surfactant.
At the same time, plants selected from these crop and weed species and also barley, winter (winter barley, Hordeum vulgare), windgrass (Apera spica-venti), chickweed (common chickweed, Stellaria media), deadnettle (henbit deadnettle, Lamium amplexicaule), and canarygrass (littleseed canarygrass, Phalaris minor) were planted in pots containing Redi-Earth® planting medium (Scotts Company, 14111 Scottslawn Road, Marysville, Ohio 43041) comprising spaghnum peat moss, vermiculite, wetting agent and starter nutrients and treated with postemergence applications of test chemicals formulated in the same manner. Plants ranged in height from 2 to 18 cm (1- to 4-leaf stage) for postemergence treatments. Treated plants and controls were maintained in a greenhouse for 13 to 15 days, after which time all species were compared to controls and visually evaluated. Plant response ratings, summarized in Table C, are based on a scale of 0 to 100 where 0 is no effect and 100 is complete control. A dash (-) response means no test result.

giant foxtail [1] = assay: Test A postemergence; assay type: in vivo, Setaria faberii; conditions: Setaria faberi, post-emergence, 240 h, 0 to 100 scale where 0 is no effect and 100 is complete control
In short: as §2

giant foxtail [2] = assay: Test C preemergence; assay type: in vivo, Setaria faberii; conditions: Setaria faberi, pre-emergence
In short: as §1

johnsongrass = assay: Test C postemergence; assay type: in vivo, Sorghum halepense; conditions: Sorghum halepense, post-emergence
In short: as §1

corn = assay: Test C preemergence; assay type: in vivo, Zea mays; conditions: Zea mays, pre-emergence
In short: as §1

FC(F)c1cccc(Oc2ncc(Cl)cn2)c1-n1cc(Br)cn1 [Compound 194, 2-[2-(4-bromo-1H-pyrazol-1-yl)-3-(difluoromethyl)phenoxy]-5-chloropyrimidine]
pest or weed control at 250 g/ha (Heteranthera limosa): 98% | Ragweed plant response rating (ragweed; 31 g ai/ha, postemergence, visual rating, scale 0 to 100 (0 no effect, 100 complete control), 13 to 15 days): 15 | pest or weed control at 125 g/ha (ragweed; Ambrosia artemisiifolia, post-emergence, 125 g ai/ha, postemergence, visual rating, scale 0 to 100 (0 no effect, 100 complete control), read-out: Plant response rating, Ragweed): 50% | pest or weed control at 250 g/ha (ragweed; Ambrosia artemisiifolia, post-emergence, 250 g ai/ha, postemergence, read-out: Plant response rating (0 to 100), Ragweed): 50% | pest or weed control at 62 g/ha (ragweed; Ambrosia artemisiifolia, post-emergence, Postemergence, 62 g ai/ha, scale 0 to 100 (0 no effect, 100 complete control), 13 to 15 days, read-out: Plant response rating, Ragweed): 25% | Morningglory plant response rating (morningglory; 125 g ai/ha): 90 | pest or weed control at 500 g/ha (morningglory; Ipomoea, post-emergence, 240 h, 500 g ai/ha, read-out: Plant response rating, Morningglory): 100% | pest or weed control at 31 g/ha (galium; 31 g ai/ha, postemergence, visual rating, scale 0 to 100 (0 no effect, 100 complete control), 13 to 15 days, read-out: Galium plant response rating): 60% | pest or weed control at 125 g/ha (galium; 125 g ai/ha, postemergence, visual rating, scale 0 to 100 (0 no effect, 100 complete control), read-out: Plant response rating, Galium): 85% | pest or weed control at 250 g/ha (galium; 250 g ai/ha, postemergence, read-out: Plant response rating (0 to 100), Galium): 90% | pest or weed control at 62 g/ha (galium; Postemergence, 62 g ai/ha, scale 0 to 100 (0 no effect, 100 complete control), 13 to 15 days, read-out: Plant response rating, Galium): 65% | Wheat plant response rating (0 to 100 scale) (wheat; 125 g ai/ha): 20 | plant injury at 500 g/ha (wheat; Triticum aestivum, pre-emergence, 240 h, 500 g ai/ha, 0 to 100 scale where 0 is no effect and 100 is complete control, read-out: Wheat plant response rating): 30% | pest or weed control at 125 g/ha (waterhemp; 125 g ai/ha, preemergence, scale 0 (no effect) to 100 (complete control), read-out: Waterhemp plant response rating): 100% | pest or weed control at 250 g/ha (waterhemp; 250 g ai/ha, preemergence, scale 0 (no effect) to 100 (complete control), read-out: Waterhemp plant response rating): 100% | pest or weed control at 62 g/ha (waterhemp; Preemergence, 62 g ai/ha, scale 0 to 100, 0 no effect, 100 complete control, read-out: Plant response rating, Waterhemp): 100% | plant injury at 125 g/ha (oilseed rape; 125 g ai/ha, preemergence, scale 0 (no effect) to 100 (complete control), read-out: Oilseed Rape plant response rating): 90% | plant injury at 250 g/ha (oilseed rape; 250 g ai/ha, preemergence, scale 0 (no effect) to 100 (complete control), read-out: Oilseed Rape plant response rating): 100% | plant injury at 62 g/ha (oilseed rape; Preemergence, 62 g ai/ha, scale 0 to 100, 0 no effect, 100 complete control, read-out: Plant response rating, Oilseed Rape): 30% | pest or weed control at 125 g/ha (giant foxtail [1]; 125 g ai/ha, read-out: Foxtail, Giant plant response rating): 90% | pest or weed control at 500 g/ha (giant foxtail [1]; 500 g ai/ha, read-out: Plant response rating, Foxtail, Giant): 100% | pest or weed control at 125 g/ha (giant foxtail [2]; 125 g ai/ha, preemergence, scale 0 (no effect) to 100 (complete control), read-out: Foxtail, Giant plant response rating): 100% | pest or weed control at 250 g/ha (giant foxtail [2]; 250 g ai/ha, preemergence, scale 0 (no effect) to 100 (complete control), read-out: Foxtail, Giant plant response rating): 100% | pest or weed control at 62 g/ha (giant foxtail [2]; Preemergence, 62 g ai/ha, scale 0 to 100, 0 no effect, 100 complete control, read-out: Plant response rating, Foxtail, Giant): 90% | pest or weed control at 125 g/ha (johnsongrass; 125 g ai/ha, postemergence, visual rating, scale 0 to 100 (0 no effect, 100 complete control), read-out: Plant response rating, Johnsongrass): 25% | pest or weed control at 250 g/ha (johnsongrass; 250 g ai/ha, postemergence, read-out: Plant response rating (0 to 100), Johnsongrass): 35% | pest or weed control at 62 g/ha (johnsongrass; Postemergence, 62 g ai/ha, scale 0 to 100 (0 no effect, 100 complete control), 13 to 15 days, read-out: Plant response rating, Johnsongrass): 5% | plant injury at 125 g/ha (corn; 125 g ai/ha, preemergence, scale 0 (no effect) to 100 (complete control), read-out: Corn plant response rating): 15% | plant injury at 250 g/ha (corn; 250 g ai/ha, preemergence, scale 0 (no effect) to 100 (complete control), read-out: Corn plant response rating): 25% | Corn plant response rating (crop injury, 0 = no effect, 100 = complete kill) at 62 g/ha (corn; Preemergence, 62 g ai/ha, scale 0 to 100, 0 no effect, 100 complete control): 0%
